{
  "source": "patent US20100204149A1",
  "about": "“USE OF OCTREOTIDE AS A THERAPEUTIC AGENT” (priority 2007, published 2010)",
  "key": {"HIV-1IIIB": {"system": "HIV-1IIIB", "test": "HIV-1 antiviral assay (CPE reduction) in CEM-SS cells", "conditions": "peptide 10 micrograms per ml; 6 days post-infection; MTS"}, "CEM-SS cells": {"system": "CEM-SS cells", "test": "Cytotoxicity (MTS cell viability) in HIV-1 assay", "conditions": "peptide 10 micrograms per ml, MTS"}, "[1]": {"system": "MRC-5 cells (human embryonal lung fibroblasts)", "test": "Cytotoxicity testing in MRC-5 cells (CellTiter 96)", "type": "cell-based", "conditions": "6 days", "procedure": "For cytotoxicity testing, MRC-5 cells were seeded at 2,500 cells/well in 96 well plates using growth medium. […] The following day, peptide was added and tested in duplicates. After a 6 days incubation period, cell viability was measured using CellTiter 96 Solution (Promega). Plates were incubated for additional 4 hours at 37° C."}, "HCMV strain AD169": {"system": "HCMV strain AD169", "test": "HCMV plaque reduction assay in MRC-5 cells", "type": "cell-based", "conditions": "peptide 10 micrograms per ml, 7-10 days", "source_text": "Ganciclovir was used as positive control."}},
  "data": [
    {"smiles": "Cc1cn([C@H]2C[C@H](N=[N+]=[N-])[C@@H](CO)O2)c(=O)[nH]c1=O", "note": "[AZT, reference compound]", "values": [
      {"measurement": "% CPE reduction in HIV-1 infected CEM-SS cells", "setting": "HIV-1IIIB", "result": 99, "unit": "%"},
      {"measurement": "% Cell viability", "setting": "CEM-SS cells", "result": 97, "unit": "%"}
    ]},
    {"smiles": "Nc1nc(O)c2ncn(COC(CO)CO)c2n1", "note": "[Ganciclovir, reference compound]", "values": [
      {"measurement": "% Cell viability", "setting": "[1]", "result": 100, "unit": "%"},
      {"measurement": "% plaque reduction", "setting": "HCMV strain AD169", "result": 100, "unit": "%"}
    ]},
    {"smiles": "CC(C)(C)NC(=O)[C@@H]1CN(Cc2cccnc2)CCN1C[C@@H](O)C[C@@H](Cc1ccccc1)C(=O)N[C@H]1c2ccccc2C[C@H]1O", "note": "[Indinavir]", "values": [
      {"measurement": "% CPE reduction in HIV-1 infected CEM-SS cells", "setting": "HIV-1IIIB", "result": 100, "unit": "%"}
    ]}
  ]
}
